System: olfactory bulb glomeruli
Assay: Odor detection by the bio-electronic nose (surface electrode array on the olfactory bulb)
Type: in vivo, mouse
Conditions: FIG. 10
Source text: In one embodiment utilizing an organism, such as a mouse, as the chemical detector, the mouse is anesthetized and a craniotomy will be made above one of the OBs. A grid electrode will be positioned on the surface of the bulb. The recording is optimized for different conditions: sub or epi-durally or through a thin layer of skull. Alternatively, a surface electrode can be implanted in conjunction with a probe (such as silicone) inserted to the bulb to obtain signals from higher processing levels, such as the mitral/tufted cells, to improve the filtration of early olfactory responses. Typically, the electrode is divided into several areas (1-4) of 8×8 electrode sites. […]
In one embodiment, a method of interpreting information from the at least one electrode relies on the development of reliable techniques for recording on the surface of the bulb and on algorithms for extracting odor information from these recordings. […] Theta waves, indicative of respiration, are used to verify inhalation in conjunction with readings from the pressure signal. […]
For […], at each session a mouse will be positioned in a head-fixed apparatus similar to that used for anesthetized recordings (FIG. 7). The sniffing/breathing pattern and signals continuously recorded from electrode array, and we will expose the mouse to multiple odor presentations (n˜500). […]

Row | Structure (SMILES) | minimum detectable concentration (odorant detected by the bio-electronic nose) | EC50 (odorant presented to mouse with electrode array on olfactory bulb, read-out: minimum concentration (EC50) detected by the bio-electronic nose)
1 | CCCCC(=O)OC [Methyl Valerate] | 10^−12 M | –
2 | NCCc1ccccc1 [Phenylethylamine] | – | 0.01 nM
